Values of other authors in patent publication US7416898B2, “Chemiluminescent 1,2-dioxetanes” (priority 2002, dated 2008).

Settings: compared with 1,2-dioxetanes (14) and (15)

For `O=C(O)CCCOC1(c2cccc(OP(=O)(O)O)c2)OOC12C1CC3CC(C1)CC2C3` (stereo not shown) [Dioxetane 16], the “solubility in an aqueous system” value is listed as “more soluble in an aqueous system than 1,2-dioxetane (14) and (15)”.
